Source: patent publication US20250035634A1, “A METHOD FOR DETECTING CLUSTERING OF RAS PROTEIN” (Nanyang Technological University, priority 2021, published 2025)

Key:
ASPC-1 cells = settings: 24 hrs, read-out: IC50, MTT assay growth inhibition; cited from earlier work
K-Ras = target: T1, K-Ras (Homo sapiens, UniProt P01116); settings: Hela cells, 4 hrs; read-out: IC50, NanoBit assay measuring K-Ras activation; cited from earlier work
T1 construct: host or cells: HeLa

KRasG12V = target: T2, KRasG12V (Homo sapiens, UniProt P01116, G12V); assay: nanobar-guided KRasG12V clustering (Enrichment Index) in U2OS cells; format: cell-based; settings: for Enrichment Index (EI) of KRasG12V: mean±s.e.m.
T2 construct: through full-length KRasG12V, HRasG12V and the truncated Ras isoforms tK-Ras and tH-Ras; expressed in transfected cells; host or cells: U2OS
Source text: Arrays of nanostructures on SiO2 surface of bar shape are fabricated with two curved ends and flat sidewalls using electron beam lithography (EBL). […] To conduct EBL, the chips are spin-coated with an electron-sensitive layer, 300 nm of positive electron-beam resist poly (methyl methacrylate) (PMMA) (MicroChem), followed by a conductive polymer layer of AR-PC 5090.02 (Allresist). Desired patterns are then written on the polymer through exposure to EBL (FEI Helios NanoLab), and developed in isopropanol:methylisobutylketone (IPA:MIBK)=3:1 solution. Subsequently, a 30-nm chromium (Cr) mask is deposited onto the surface via thermal evaporation (UNIVEX 250 Benchtop) and lift-off in acetone. Nanostructures are generated through reactive ion etching with the mixture of CF4 and CHF3 (Oxford Plasmalab 80). After fabrication, scanning electron microscopy (SEM) (FEI Helios NanoLab) imaging can be performed after 10-nm Cr coating to measure the dimensional properties of nanostructures (FIG. 1, top). Before use, the nanostructured-chip is cleaned by Chromium Etchant (Sigma-Aldrich) to remove the remaining metal layer.
To culture the cells onto the nanostructured chip, the chip is first cleaned by air plasma treatment (Harrick Plasma) and sterilized by UV radiation. Additional coating reagents like extracellular matrix (ECM) protein components (e.g., fibronectin or gelatin, Sigma-Aldrich) can be added to promote cell attachment. After coating, the cells are plated and maintained in DMEM (Gibco) supplemented with fetal bovine serum (FBS, Life Technologies) and Penicillin-Streptomycin (Life Technologies) in a standard incubator at 37° C. with 5% CO2.
The Ras proteins can be expressed transiently by transfecting the fluorescent protein-tagged Ras plasmid (e.g., EGFP-KRasG12V, EGFP, enhanced green fluorescent protein) into cells using the Lipofectamine (Life Technologies) protocol or electroporation (e.g., Neon Transfection System, Thermo Fisher). If necessary, the transfection parameters (e.g., the amount of the plasmid, starvation time and expression time) and electroporation parameters (e.g., pulse voltage, pulse width, pulse number) can be optimized to reach the expected transfection efficiency and expression level. FBS can be removed at the expression step from the culture medium to prevent Ras activation.
To evaluate the effect of a Ras inhibitor on disrupting the Ras clusters, a gradient concentration and several treatment durations can be selected to determine the effective window. A control group with no treatment should be conducted at the same time. Before and after treatment of the same batch of cells can also be compared.
Cell imaging is performed with laser scanning confocal microscopy (Zeiss LSM 800 with Airyscan) and a Plan-Apochromat 100×/1.4 oil objective. EGFP is excited at 488 nm and detected at 490-570 nm. RFP is excited at 561 nm and detected at 570-645 nm. Images were taken with a resolution of 512×512 pixels, 16-bit and 124 nm pixel size. A scanning speed of 20 s/image and an averaging mode of 4 times/line can be applied. During imaging, the cells are maintained in live cell imaging solution (Thermo Fisher) at 37° C. in an on-stage incubator. […] The images are conducted with a single snap shot for display of Ras variants and the quantification. For the imaging of co-expressed K-Ras variants and CRaf-RBD, z-stack images can be taken and averaged for display and the intensity profiles. The calculation of Pearson correlation coefficient is also based on single snap shot.
To quantify the nanobar-guided clustering of Ras variants, the fluorescence intensity ratio at the nanobar end to the flat sidewall (i.e. Enrichment Index, EI) is calculated. The background signals of each image are firstly subtracted by the rolling ball algorithm in ImageJ (radius=3 pixels for 250 nm diameter nanobars). Next, the nanobars covered by the cell to be analyzed are identified by a custom-written MATLAB (MathWorks) code. […]

Calu-1 cells = settings: 24 hrs, read-out: IC50, MTT assay growth inhibition; cited from earlier work
HRasG12V = target: T3, HRasG12V (Homo sapiens, UniProt P01112, G12V); assay: nanobar-guided HRasG12V clustering (Enrichment Index) in U2OS cells; format: cell-based
T3 construct: through full-length KRasG12V, HRasG12V and the truncated Ras isoforms tK-Ras and tH-Ras; expressed in transfected cells; host or cells: U2OS
Source text: Arrays of nanostructures on SiO2 surface of bar shape are fabricated with two curved ends and flat sidewalls using electron beam lithography (EBL). […] To conduct EBL, the chips are spin-coated with an electron-sensitive layer, 300 nm of positive electron-beam resist poly (methyl methacrylate) (PMMA) (MicroChem), followed by a conductive polymer layer of AR-PC 5090.02 (Allresist). Desired patterns are then written on the polymer through exposure to EBL (FEI Helios NanoLab), and developed in isopropanol:methylisobutylketone (IPA:MIBK)=3:1 solution. Subsequently, a 30-nm chromium (Cr) mask is deposited onto the surface via thermal evaporation (UNIVEX 250 Benchtop) and lift-off in acetone. […]
Cell imaging is performed with laser scanning confocal microscopy (Zeiss LSM 800 with Airyscan) and a Plan-Apochromat 100×/1.4 oil objective. EGFP is excited at 488 nm and detected at 490-570 nm. RFP is excited at 561 nm and detected at 570-645 nm. […] The images are conducted with a single snap shot for display of Ras variants and the quantification. […]
To quantify the nanobar-guided clustering of Ras variants, the fluorescence intensity ratio at the nanobar end to the flat sidewall (i.e. Enrichment Index, EI) is calculated. […] Next, the nanobars covered by the cell to be analyzed are identified by a custom-written MATLAB (MathWorks) code. […]

HCT-116 cells = settings: 24 hrs, read-out: IC50, MTT assay growth inhibition; cited from earlier work

COc1ccc([C@@]23Oc4cc(OC)cc(OC)c4[C@]2(O)[C@H](O)[C@H](C(=O)N(C)C)[C@H]3c2ccccc2)cc1 [rocaglamide]
IC50 (ASPC-1 cells): 10.2 nM
IC50 (K-Ras): 24.8 nM
detection limit: concentration at which effect on KRasG12V clustering is detected (KRasG12V; 1 hr treatment): 25 nM
IC50 (KRasG12V; KRasG12V, 1 hr, one-phase decay fit of EI, read-out: IC50 of the nanobar assay, effect on K-Ras clustering): 18.4 nM
effect on bar-end accumulated clustering of KRasG12V (KRasG12V; drug treatment vs DMSO, U2OS cells on nanobars): significant reduction
Enrichment Index (EI) of KRasG12V (KRasG12V; rocaglamide 25 nM, 1 hr): 1.64±0.018
detection time: treatment time giving significant reduction of KRasG12V clustering (KRasG12V; rocaglamide 50 nM): 15 min
Enrichment Index (EI) of KRasG12V (KRasG12V; rocaglamide 50 nM, 15 mins): 1.72±0.032
Enrichment Index (EI) of KRasG12V (KRasG12V; rocaglamide 50 nM, 1 hr): 1.55±0.021
Enrichment Index (EI) of KRasG12V (KRasG12V; rocaglamide 50 nM, 4 hrs): 1.64±0.024
Enrichment Index (EI) of KRasG12V (KRasG12V; rocaglamide 100 nM, 1 hr, U2OS cells): 1.58±0.027
IC50 (Calu-1 cells): 11.9 nM
Enrichment Index (EI) of HRasG12V (HRasG12V; rocaglamide 100 nM, 4 hrs, U2OS cells, mean±s.e.m.): 1.87±0.029
effect on bar-end accumulated clustering of HRasG12V (HRasG12V; same drug treatment vs DMSO, U2OS cells on nanobars): no obvious changes
IC50 (HCT-116 cells): 9.47 nM
